Laboratory results as given in US8883841B2, “Oncogenic ras-specific cytotoxic compound and methods of use thereof” (The Board of Regents of the University of Texas System, priority 2005, dated 2014).

Experiments:
[1] = system: Sw620; assay: Cell viability, Sw620 colon cancer cells; assay type: cell-based, human; settings: Sw620, Colon
[2] = system: H460 tumors; assay: In vivo antitumor activity, subcutaneous H460 tumors in nude mice; settings: for suppression of growth of tumor volume in comparison with solvent / mean survival: 100 mg/kg/injection daily i.p.; for suppression of growth of tumor volume in comparison with solvent: Oncrasin-1 10 days, Oncrasin-27 3 days; for mean survival: solvent 24 days; for mean tumor volume vs solvent-treated mice: p<0.05, 5 mice per group
Description: The inventors have investigated the in vivo antitumor activity of Oncrasin compounds, such as Oncrasin-1 and Oncrasin-27, both are available at relatively larger scale. Subcutaneous tumors were established in 4- to 6-week-old female nude mice (Charles River Laboratories Inc., Wilmington, Mass.) by the inoculation of 1.5×10^6 H460 cells into the dorsal flank of each mouse. After the tumors grew to 5 mm in diameter, mice were treated with intraperitoneal injections of Oncrasin-1 (for 10 days) or Oncrasin-27 (for 3 days, because of limited availability of the compound) at a dose of 100 mg/kg/injection daily (the agents were dissolved in 0.5 mL of solvent containing 10% DMSO, 10% Cremophor EL, and 10% ethanol), or they were given intraperitoneal injections of solvent alone. The tumor volumes were calculated using the formula a×b^2×0.5, where a and b represent the larger and smaller diameters, respectively (Gu et al., 2000; Terashi et al., 2005). Mice were killed when the tumors grew to 1.5 cm in diameter. To evaluate the toxicity of treatment, blood samples were collected from the tail vein before treatment and 2 days after the last treatment, and serum alanine transaminase, aspartate transaminase, and creatinine levels were determined as described elsewhere (Gu et al., 2000; Terashi et al., 2005). Hematopoietic toxicity was monitored by counting red blood cells, white blood cells, and platelets (Gu et al., 2002; Terashi et al., 2005). The lung, heart, liver, intestine, spleen, and kidney were harvested after the mice were killed to test the toxic effects of both compounds on these organs. The histopathologic analysis was performed in the histology laboratory of the Department of Veterinary Medicine and Surgery at M. D. Anderson Cancer Center. […] The mean survivals for mice treated with solvent, Oncrasin-1, and Oncrasin-27 were 24, 32, and 34 days, respectively.

[3] = system: NCI/ADR-RES; assay: NCI in-vitro testing, NCI/ADR-RES (Breast Cancer)
[4] = system: CAKI-1; assay: NCI in-vitro testing, CAKI-1 (Renal Cancer); settings: for Percent Growth: CAK1-1
[5] = system: HOP-62; assay: NCI in-vitro testing, HOP-62 (Non-Small Cell Lung Cancer)
[6] = system: 786-0; assay: NCI in-vitro testing, 786-0 (Renal Cancer)
[7] = system: HCT-15; assay: NCI in-vitro testing, HCT-15 (Colon Cancer)
[8] = system: SNB-19; assay: NCI in-vitro testing, SNB-19 (CNS Cancer)
[9] = system: HOP-92; assay: NCI in-vitro testing, HOP-92 (Non-Small Cell Lung Cancer)
[10] = system: MOLT-4; assay: NCI in-vitro testing, MOLT-4 (Leukemia)
[11] = system: OVCAR-4; assay: NCI in-vitro testing, OVCAR-4 (Ovarian Cancer)
[12] = system: SNB-75; assay: NCI in-vitro testing, SNB-75 (CNS Cancer)

In the case of `O=Cc1cn(Cc2ccc(Cl)cc2)c2ccccc12` [Oncrasin K001, 1H-Indole-3-carboxaldehyde, 1-[(4-chlorophenyl)methyl]-(9CI)], the “IC50 (−LogM)” value [1] is reported as 5.4 −LogM, the “suppression of growth of tumor volume in comparison with solvent” value [2] is reported as 75.4% and the mean survival [2] is reported as 32 days. The “mean tumor volume vs solvent-treated mice” value [2] was “differed significantly”.
`O=Cc1cn(Cc2cccc(Cl)c2)c2ccccc12` [Oncrasin K027, 1-(3-chlorobenzyl)-1H-indole-3-carbaldehyde] gave a TGI [3] of 3.32E−6 Molar, a GI50 ([3]; Homo sapiens) of 9.22 µM and a CC50 ([3]; Homo sapiens, read-out: LC50) of over 100 µM. For the same molecule, the “Percent Growth” value ([3]; Log10 Concentration −4.0 Molar) was −45%, the “Percent Growth” value ([3]; Log10 Concentration −5.0 Molar) was 48% and the “Percent Growth” value ([3]; Log10 Concentration −6.0 Molar) was 85%. For the same molecule, the “Percent Growth” value ([3]; Log10 Concentration −7.0 Molar) was 94%, the “Percent Growth” value ([3]; Log10 Concentration −8.0 Molar) was 103% and the “Percent Growth” value ([4]; Log10 Concentration −4.0 Molar) was 1%. The “Percent Growth” value ([4]; Log10 Concentration −5.0 Molar) was −47%, the “Percent Growth” value ([4]; Log10 Concentration −6.0 Molar) was −21% and the “Percent Growth” value ([4]; Log10 Concentration −7.0 Molar) was −3%. The “Percent Growth” value ([4]; Log10 Concentration −8.0 Molar) was 1%, the GI50 ([4]; Homo sapiens, CAKI-1) was under 0.01 µM and the CC50 ([4]; Homo sapiens, CAKI-1, read-out: LC50) was over 100 µM. The TGI ([5]; HOP-62) was 1.93E−5 Molar, the “Percent Growth” value ([5]; HOP-62, Log10 Concentration −4.0 Molar) was −37% and the “Percent Growth” value ([5]; HOP-62, Log10 Concentration −5.0 Molar) was 15%. The “Percent Growth” value ([5]; HOP-62, Log10 Concentration −6.0 Molar) was 35%, the “Percent Growth” value ([5]; HOP-62, Log10 Concentration −7.0 Molar) was 87% and the “Percent Growth” value ([5]; HOP-62, Log10 Concentration −8.0 Molar) was 91%. The GI50 ([5]; Homo sapiens, HOP-62) was 0.35 µM, the CC50 ([5]; Homo sapiens, HOP-62, read-out: LC50) was over 100 µM and the TGI ([6]; 785-0) was 2.19E−5 Molar. For the same molecule, the “Percent Growth” value ([6]; 785-0, Log10 Concentration −4.0 Molar) was −52%, the “Percent Growth” value ([6]; 785-0, Log10 Concentration −5.0 Molar) was 27% and the “Percent Growth” value ([6]; 785-0, Log10 Concentration −6.0 Molar) was 70%. For the same molecule, the “Percent Growth” value ([6]; 785-0, Log10 Concentration −7.0 Molar) was 88%, the “Percent Growth” value ([6]; 785-0, Log10 Concentration −8.0 Molar) was 69% and the GI50 ([6]; Homo sapiens, 786-0) was 3.4 µM. For the same molecule, the CC50 ([6]; Homo sapiens, 786-0, read-out: LC50) was 84.7 µM, the TGI ([7]; HCT-15) was 2.58E−6 Molar and the “Percent Growth” value ([7]; HCT-15, Log10 Concentration −4.0 Molar) was −31%. For the same molecule, the “Percent Growth” value ([7]; HCT-15, Log10 Concentration −5.0 Molar) was 21%, the “Percent Growth” value ([7]; HCT-15, Log10 Concentration −6.0 Molar) was 69% and the “Percent Growth” value ([7]; HCT-15, Log10 Concentration −7.0 Molar) was 90%. For the same molecule, the “Percent Growth” value ([7]; HCT-15, Log10 Concentration −8.0 Molar) was 99%, the GI50 ([7]; Homo sapiens, HCT-15) was 0.0252 µM and the CC50 ([7]; Homo sapiens, HCT-15, read-out: LC50) was over 100 µM. It also gave a GI50 ([8]; Homo sapiens, SNB-19) of 17.6 µM, a CC50 ([8]; Homo sapiens, SNB-19, read-out: LC50) of over 100 µM and a TGI ([8]; SNB-19) of 5.89E−5 Molar. For the same molecule, the “Percent Growth” value ([8]; SNB-19, Log10 Concentration −4.0 Molar) was −24%, the “Percent Growth” value ([8]; SNB-19, Log10 Concentration −5.0 Molar) was 74% and the “Percent Growth” value ([8]; SNB-19, Log10 Concentration −6.0 Molar) was 97%. For the same molecule, the “Percent Growth” value ([8]; SNB-19, Log10 Concentration −7.0 Molar) was 97%, the “Percent Growth” value ([8]; SNB-19, Log10 Concentration −8.0 Molar) was 103% and the “Percent Growth” value ([9]; HOP-92, Log10 Concentration −4.0 Molar) was −60%. For the same molecule, the “Percent Growth” value ([9]; HOP-92, Log10 Concentration −5.0 Molar) was 34%, the “Percent Growth” value ([9]; HOP-92, Log10 Concentration −6.0 Molar) was 89% and the “Percent Growth” value ([9]; HOP-92, Log10 Concentration −7.0 Molar) was 81%. For the same molecule, the “Percent Growth” value ([9]; HOP-92, Log10 Concentration −8.0 Molar) was 97%, the GI50 ([9]; Homo sapiens, HOP-92) was 5.17 µM and the CC50 ([9]; Homo sapiens, HOP-92, read-out: LC50) was 77.8 µM. The CC50 ([10]; Homo sapiens, MOLT-4, read-out: LC50) was 82.6 µM, the TGI ([10]; MOLT-4) was 3.82E−5 Molar and the “Percent Growth” value ([10]; MOLT-4, Log10 Concentration −4.0 Molar) was −62%. For the same molecule, the “Percent Growth” value ([10]; MOLT-4, Log10 Concentration −5.0 Molar) was 87%, the “Percent Growth” value ([10]; MOLT-4, Log10 Concentration −6.0 Molar) was 109% and the “Percent Growth” value ([10]; MOLT-4, Log10 Concentration −7.0 Molar) was 102%. For the same molecule, the “Percent Growth” value ([10]; MOLT-4, Log10 Concentration −8.0 Molar) was 114%, the “suppression of growth of tumor volume in comparison with solvent” value [2] was 76.3% and the mean survival [2] was 34 days. For the same molecule, the “mean tumor volume vs solvent-treated mice” value [2] was “differed significantly”, the GI50 ([11]; Homo sapiens, OVCAR-4) was 0.34 µM and the CC50 ([11]; Homo sapiens, OVCAR-4, read-out: LC50) was over 100 µM. The TGI ([11]; OVCAR-4) was 1.80E−5 Molar, the “Percent Growth” value ([11]; OVCAR-4, Log10 Concentration −4.0 Molar) was −29% and the “Percent Growth” value ([11]; OVCAR-4, Log10 Concentration −5.0 Molar) was 10%. For the same molecule, the “Percent Growth” value ([11]; OVCAR-4, Log10 Concentration −6.0 Molar) was 31%, the “Percent Growth” value ([11]; OVCAR-4, Log10 Concentration −7.0 Molar) was 71% and the “Percent Growth” value ([11]; OVCAR-4, Log10 Concentration −8.0 Molar) was 94%. For the same molecule, the GI50 ([12]; Homo sapiens, SNB-75) was 7.64 µM, the CC50 ([12]; Homo sapiens, SNB-75, read-out: LC50) was 62.8 µM and the TGI ([12]; SNB-75) was 2.31E−5 Molar. The “Percent Growth” value ([12]; SNB-75, Log10 Concentration −4.0 Molar) was −73%, the “Percent Growth” value ([12]; SNB-75, Log10 Concentration −5.0 Molar) was 42% and the “Percent Growth” value ([12]; SNB-75, Log10 Concentration −6.0 Molar) was 112%. The “Percent Growth” value ([12]; SNB-75, Log10 Concentration −7.0 Molar) was 119% and the “Percent Growth” value ([12]; SNB-75, Log10 Concentration −8.0 Molar) was 118%.
